According to patent publication US20090023186A1, “USE OF VALPROIC ACID FOR ENHANCING PRODUCTION OF RECOMBINANT PROTEINS IN MAMMALIAN CELLS” (EXCELLGENE SA, priority 2007, published 2009):

Experiments:
HEK293E cells = experiment: Alternative transgene TNFR-Fc, batch titer by ELISA (Example 4); format: cell-based, Human; conditions: 3.8 mmol/l final VPA, day 5 after transfection
Description: 10 million suspension-adapted HEK293E cells were resuspended in 0.5 ml of Ex-Cell 293 HEK 293 serum-free medium with 4 mmol/l L-glutamine (Cat. No. 14571C-[…]; Lot No. 6A0093; SAFC Biosciences, Lenexa, Kans., USA, “Ex-Cell” medium; note: “Ex-Cell” medium-as used herein-refers to a medium comprising 4 mmol/l L-glutamine) in a 50-ml filter tube each (TPP AG, Trasadingen, Switzerland; Cat. No. 87050, Lot 20050174). In a separate set, 10 million suspension-adapted CHO DG44 cells were resuspended in 0.5 ml of ProCHO5 serum-free medium with 4 mmol/[…] hypoxanthine and 0.194 g/l thymidine (BioWhittaker (Lonza), Belgium; Cat. No. BE12-[…]; Lot No. 7MB0040; “ProCHO5” medium; note: “ProCHO5” medium-as used herein-refers to a medium comprising 4 mmol/[…] hypoxanthine and 0.194 g/l thymidine) in a 50-ml filter tube each (TPP AG, Trasadingen, Switzerland; Cat. No. 87050, Lot 20050174). […] In short, Goat Anti-Human IgG (Fc Fragment specific; Jackson ImmunoResearch Laboratories Inc., West Grove, Pa., USA; Code Number 109-006-098; Lot No. 72349) was used for coating the ELISA-plates, and with AP-conjugated goat anti-human gamma chain IgG (Biosource) the synthesized TNFR-Fc was detected. […] Absorption was measured at 405 nm against 490 nm using a microplate reader (SPECTRAmaxTM340; Molecular Devices, Palo Alto, Calif., USA).

CHO DG44 cells = experiment: Influence of temperature on IgG batch titer and comparison with sodium butyrate (Example 2); format: cell-based, Chinese Hamster; conditions: day 5 after transfection
Description: No. 14571C-[…]; Lot No. 6A0093; SAFC Biosciences, Lenexa, Kans., USA, “Ex-Cell” medium; note: “Ex-Cell” medium-as used herein-refers to a medium comprising 4 mmol/l L-glutamine) in a 50-ml filter tube each (TPP AG, Trasadingen, Switzerland; Cat. No. 87050, Lot 20050174). In a separate set, 10 million suspension-adapted CHO DG44 cells were resuspended in 0.5 ml of ProCHO5 serum-free medium with 4 mmol/[…] hypoxanthine and 0.194 g/l thymidine (BioWhittaker (Lonza), Belgium; Cat. No. BE12-[…]; Lot No. 7 MB0040; “ProCHO5” medium; note: “ProCHO5” medium-as used herein-refers to a medium comprising 4 mmol/[…] hypoxanthine and 0.194 g/l thymidine) in a 50-ml filter tube each (TPP AG, Trasadingen, Switzerland; Cat. No. 87050, Lot 20050174). Then 12.5 μg plasmid DNA at a concentration of 1 μg/μl was added in each tube with the following composition 50% (6.25 μg) p-LC (SEQ ID NO: 1) 50% (6.25 μg) p-HC (SEQ ID NO: 3). Plasmid p-LC comprises the genetic information for the production of the light chain of an IgG antibody, plasmid p-HC comprises the genetic information for the production of the heavy chain of an IgG antibody. The particular vector constructs used in the present invention can also be obtained from the inventors. The inventors can be contacted via e-mail at […]. Moreover, commercial services do exist that produce any desired nucleotide sequence even comprising several kilobase pairs including complete expression cassettes in plasmid backgrounds (e.g., Invitrogen, Carlsbad, USA; Geneart, Germany.) Thus, providing the genetic sequence information of the plasmids should enable one of ordinary skill in the art to order the plasmids of the present invention at one of the commercial services listed. After shortly mixing the DNA with the cells by gentle shaking, 25 μg of 25-kd linear polyethyleneimine (“PEI”; Polysciences, Eppelheim, Germany; [2]) were added at a concentration of 1 μg/μl to each of the tubes. After shortly mixing by gentle shaking, the filter tubes containing the cells together with the DNA and PEI were transferred into an orbital shaker (Kühner Shaker Cabinet ISF-4-W, “Kühner shaker”, Kühner AG, Birsfelden, Switzerland), and the cells were incubated for 4 hours at 37° C. in a 5% CO2 atmosphere under shaking at 180 rpm. After that time, 4.5 ml of Ex-Cell medium were added to each of the filter tubes containing HEK 293 cells and 4.5 ml of Pro-CHO5 were added to each of the filter tubes containing CHO DG44 cells. […] No. […] Sigma-Aldrich Chemie GmbH, Industriestrasse 25, CH-9471 Buchs SG) was added to the corresponding tubes at the corresponding final concentrations. The cells then were returned into the Kühner shaker. Half the tubes were incubated at 37° C. in a 5% CO2 atmosphere under shaking at 180 rpm, the other half was incubated at 31° C. […] The ELISA was performed as published in prior art. In short, Goat anti-human kappa light chain IgG (Biosource) was used for coating the ELISA-plates, and with AP-conjugated goat anti-human gamma chain IgG (Biosource) the synthesized IgG1 was detected. NPP was used as a substrate for the alkaline phosphatase. Absorption was measured at 405 nm against 490 nm using a microplate reader (SPECTRAmaxTM340; Molecular Devices, Palo Alto, Calif., USA).

[1] = 3.8 mmol/l VPA, relative to control = 1

CCCC(CCC)C(=O)O [VPA, valproic acid]
Batch titer (HEK293E cells): 159.5 ± 12.0 mg/L | Fold increase over control (HEK293E cells): 4.5 fold | Batch titer increase at 31° C. (CHO DG44 cells; [1]): 1.5 ± 0.1 | Batch titer increase at 37° C. (CHO DG44 cells; [1]): 2.1 ± 0.1 | performance compared with sodium butyrate (batch titer increase) (CHO DG44 cells; 31° C. and 37° C.): slightly better performance than sodium butyrate
